Measured values as given in paper PMC12298876, “Angiotensin-Converting Enzyme Inhibitory Activity of Selected Phenolic Acids, Flavonoids, Their O-Glucosides, and Low-Molecular-Weight Phenolic Metabolites in Relation to Their Oxidation Potentials” (Metabolites, 2025).
“And” between values parts separate entries of the source, which are not always exact repeats. Identical values can stand only once. Like-named read-outs stand apart in the source and are kept apart here. Marks after values point to notes of the source that are not given here.

Legend:
ACE [1] = conditions: cited from earlier work; for IC50: read-out: IC50 (ACE inhibitory activity)
[2] = biological target: T1, Angiotensin-converting enzymes (ACE) from porcine kidneys (EC 3.4.15.1) (Sus scrofa, UniProt F1RRW5); assay: biochemical; conditions: for lower IC50 in relation to the respective aglycone: glycoside vs aglycon; for higher value of IC50 as compared to the IC50 of the respective aglycon: glucoside vs aglycon
T1 construct: Angiotensin-converting enzymes (ACE) from porcine kidneys (EC 3.4.15.1) were purchased from Sigma-Aldrich; purchased Sigma-Aldrich (St. Louis, MO, USA); host or cells: porcine kidneys (tissue-derived enzyme)
T1 sequence (F1RRW5 34-1309): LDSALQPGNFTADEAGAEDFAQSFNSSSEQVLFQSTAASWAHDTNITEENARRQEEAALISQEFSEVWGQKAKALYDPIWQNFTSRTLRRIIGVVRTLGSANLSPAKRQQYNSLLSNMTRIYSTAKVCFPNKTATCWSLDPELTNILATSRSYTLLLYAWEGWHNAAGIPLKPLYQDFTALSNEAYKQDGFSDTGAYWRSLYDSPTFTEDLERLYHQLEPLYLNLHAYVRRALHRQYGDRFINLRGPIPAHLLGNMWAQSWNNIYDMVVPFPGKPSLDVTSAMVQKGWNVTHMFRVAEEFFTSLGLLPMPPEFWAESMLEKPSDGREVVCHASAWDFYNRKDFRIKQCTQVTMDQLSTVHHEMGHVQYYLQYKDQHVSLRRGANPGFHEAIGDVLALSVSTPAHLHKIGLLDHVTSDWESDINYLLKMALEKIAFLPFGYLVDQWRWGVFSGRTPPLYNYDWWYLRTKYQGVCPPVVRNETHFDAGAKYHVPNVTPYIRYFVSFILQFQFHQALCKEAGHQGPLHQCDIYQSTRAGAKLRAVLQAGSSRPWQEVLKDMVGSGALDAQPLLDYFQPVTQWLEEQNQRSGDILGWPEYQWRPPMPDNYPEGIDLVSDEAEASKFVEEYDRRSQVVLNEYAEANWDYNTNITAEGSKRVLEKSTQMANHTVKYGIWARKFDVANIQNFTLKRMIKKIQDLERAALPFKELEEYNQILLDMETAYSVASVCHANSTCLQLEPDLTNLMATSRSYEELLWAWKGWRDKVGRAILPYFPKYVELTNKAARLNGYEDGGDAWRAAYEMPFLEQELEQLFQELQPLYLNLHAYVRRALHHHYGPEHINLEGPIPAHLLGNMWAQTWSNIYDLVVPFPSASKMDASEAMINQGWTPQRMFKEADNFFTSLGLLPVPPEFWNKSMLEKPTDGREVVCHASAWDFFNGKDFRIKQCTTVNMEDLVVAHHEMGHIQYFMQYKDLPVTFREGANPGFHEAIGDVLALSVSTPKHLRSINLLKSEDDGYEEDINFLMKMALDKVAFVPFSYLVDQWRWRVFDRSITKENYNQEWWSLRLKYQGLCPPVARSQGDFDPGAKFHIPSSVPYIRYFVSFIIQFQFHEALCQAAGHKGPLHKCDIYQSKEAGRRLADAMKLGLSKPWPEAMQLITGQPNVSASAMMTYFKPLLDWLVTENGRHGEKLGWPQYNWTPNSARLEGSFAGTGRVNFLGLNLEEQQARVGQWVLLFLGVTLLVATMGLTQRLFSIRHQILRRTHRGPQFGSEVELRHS
Protocol: Angiotensin-converting enzymes (ACE) from porcine kidneys (EC 3.4.15.1) were purchased from Sigma-Aldrich (St. Louis, MO, USA). A three-tris-base buffer was as follows: buffer A: 300 mM Tris-base buffer (pH 8.3) with 2 mM ZnCl2; buffer B: 150 mM Tris-base buffer (pH 8,3); and buffer C: 150 mM Tris-base buffer (pH 8.3) with […] NaCl. The substrate o-aminobenzoylglycyl-p-nitorphenylalanylproline (Abz-Gly-Phe(NO2)-Pro) was obtained from BACHEM (Bubendorf, Switzerland). Standards of phenolic acids, flavonoids, glucosides, and low-molecular-weight phenolic metabolites were obtained from Sigma-Aldrich (St. Louis, MO, USA) and Extrasynthese (Genay, France). Water was purified using the Mili-Q system (Milipore, Bedford, MA, USA).
Stock solutions at 1 mM of selected phenolic acids, flavonoids, their O-glucosides, and low-molecular-weight phenolic metabolites were prepared in 80% methanol. The concentration was confirmed by a UV measurement according to Franke et al.. A wide range of concentrations of each compound was prepared by serial dilutions in deionized water to determine the IC50 value. […] The ACE inhibitory activity was obtained from three repetitions (n = 3) for each concentration.
Angiotensin-converting enzyme (ACE) activity inhibitory assay was performed according to the method of Sentandreu and Toldra. The procedure was based on the hydrolysis of the internally quenched substrate o-aminobenzoylglycyl-p-nitorphenylalanylproline (Abz-Gly-Phe(NO2)-Pro) by the reaction of ACE. The fluorescence generated by the liberation of the product (the o-aminobenzoylglycine group) was read in a microplate multiscan fluorometer. The production of fluorescence was inhibited by the presence of functional compounds with an ACE inhibitory effect. The fluorescence was measured immediately after mixing (0 min) and then after 30 min of reaction at an excitation of 365 nm and an emission of 405 nm. To calculate the % of inhibition of ACE, the following equation was used:Relative ACE activity% = 100 − (ΔRFUsample × 100/ΔRFUnegative control), where ΔRFU = RFU at time 30 – RFU at time 0.

ACE [3] = system: ACE; design: method as in PMID 23185345; conditions: same fluorometric method as this study; read-out: IC50 (ACE inhibition); cited from earlier work
[4] = First anodic oxidation potential by differential pulse voltammetry (DPV); assay type: physicochemical; conditions: for Anodic Peak Potential Epa: DPV, first anodic peak, 0.25 mM standard in 0.1 M Britton-Robinson buffer pH 6.0 in 80% methanol, glassy carbon vs Ag/AgCl, 100 mV/s; for antioxidant power class based on the first oxidation potential: low-molecular-weight phenolic metabolites, classes according to Blasco et al. [47]
Protocol: A potentiostat/galvanostat G 750 (Gamry Instruments, Warminster, USA) was used for voltametric experiments. A conventional three-electrode system: a 3 mm diameter glassy carbon working electrode (BAS MF-2012), an Ag/AgCl electrode as a reference electrode, and a platinum as counter electrode, was used in the study. Differential pulse voltametric experiments were performed with phenolic acids and flavonoids prepared in a 1:1 (v/v) mixture of 500 µM standard solution and […] Britton-Robinson (B-R) buffer (pH 6.0 in 80% methanol), which also served as a supporting electrolyte. The voltametric experiments were performed at room temperature using an electrochemical cell (volume 200 µL), to which the analyzed standard solution, mixed previously with the buffer solution, was introduced. The differential pulse voltammograms were acquired in the range of −100 to 1300 mV at a scanning rate of 100 mV/s. Before use, the surface of the glassy carbon electrode was carefully polished with 0.05 µm alumina paste, ultrasonically rinsed in deionized water, and then washed with methanol. This procedure was repeated after each cycle. For test purposes, the first anodic oxidation potential was recorded (mV).

[5] = system: formation of advanced glycation end products; design: method as in PMID 27709826; conditions: cited from earlier work
[6] = IC50 Value (ACE inhibitory activity), porcine kidney ACE, substrate Abz-Gly-Phe(NO2)-Pro, fluorescence after 30 min, mean ± SD
[7] = porcine kidney ACE, substrate Abz-Gly-Phe(NO2)-Pro, fluorescence after 30 min, mean ± SD, read-out: IC50 Value (ACE inhibitory activity)
[8] = values of this study restated in mM in the discussion, read-out: IC50 (ACE inhibition)

Row | Compound | Anodic Peak Potential Epa [4] | IC50 [2, 7] | also measured
1 | O=C(CCc1ccc(O)cc1)c1c(O)cc(O)cc1O [phloretin] |  |  | IC50 higher than the IC50 of phloretin 2′-O-glucose (ACE [1]): 25%; IC50 (ACE [1]): 286.8 ± 2.54 µM
2 | O=c1cc(-c2ccc(O)cc2)oc2cc(O)cc(O)c12 [Apigenin] | 810 ± 6 ^c mV |  | IC50 [2, 6]: 0.337 ± 0.00372 mM; IC50 (ACE [3]): 196 µM
3 | O=C(O)/C=C/c1ccc(O)c(O)c1 [Caffeic acid] | 397 ± 8 ^e mV | 9.11 mM | IC50 (ACE [1]): 8970 ± 80 µM; IC50 [2, 8]: 9.11 ± 0.06 mM; Anodic Peak Potential Epa ([4]; listed as caffeic acid): 397 mV
4 | C[C@@H]1O[C@@H](O[C@H]2[C@H](Oc3cc(O)c4c(=O)cc(-c5ccc(O)cc5)oc4c3)O[C@H](CO)[C@@H](O)[C@@H]2O)[C@H](O)[C@H](O)[C@H]1O [rhoifolin, reference compound] |  |  | IC50 (ACE [3]): 183 µM
5 | O=c1cc(-c2ccc(O)c(O)c2)oc2cc(O)cc(O)c12 [Luteolin] | 407 ± 5 ^f mV | 0.0771 ± 0.00255 mM | IC50 lower than the value for naringenin ([2]; ACE inhibition): fivefold; IC50 (ACE [3]): 23 µM
6 | O=c1c(O)c(-c2ccc(O)cc2)oc2cc(O)cc(O)c12 [Kaempferol] | 394 ± 4 ^g mV | 0.132 ± 0.00247 mM | IC50 (ACE [3]): 178 µM
7 | COc1cc(/C=C/C(=O)O)ccc1O [Ferulic acid] | 611 ± 6 ^c mV | 0.98 ± 0.0136 mM | IC50 [2, 8]: 0.98 mM
8 | COc1cc(C(=O)O)ccc1O [Vanillic acid] | 748 ± 10 ^a mV | 4.11 ± 0.0483 mM | Anodic Peak Potential Epa ([4]; listed as vanillic acid): 748 mV
9 | O=C(O)CCc1ccc(O)cc1 [4-HPPA, 3-(4-hydroxyphenyl)propionic acid] | 664 ± 8 ^e mV | 0.49 mM and 0.491 mM | ACE inhibitory activity lower than that of reduced glutathione (GSH) ([2]; ratio to the IC50 of GSH): ~12 fold; antioxidant power class based on the first oxidation potential [4]: moderate antioxidant power (moderate antioxidant power (0.3 V < Epa < 0.8 V))
10 | O=C(O)Cc1cccc(O)c1 [3-HPAA, 3-hydroxyphenylacetic acid] | 883 ± 11 ^b mV | 0.679 ± 0.0077 mM | antioxidant power class based on the first oxidation potential [4]: weak antioxidant power (weak antioxidant power (Epa ˃ 0.8 V))
11 | O=C(O)Cc1ccc(O)cc1 [4-HPAA, 4-hydroxyphenylacetic acid] | 815 ± 12 ^c mV | 1.391 ± 0.0102 mM | antioxidant power class based on the first oxidation potential [4]: weak antioxidant power (weak antioxidant power (Epa ˃ 0.8 V))
12 | O=C(O)CCc1ccccc1O [2-HPPA, 3-(2-hydroxyphenyl)propionic acid] | 781 ± 9 ^d mV | 0.9329 ± 0.00642 mM | antioxidant power class based on the first oxidation potential [4]: moderate antioxidant power (moderate antioxidant power (0.3 V < Epa < 0.8 V))
13 | C[C@@H]1O[C@@H](OC[C@H]2O[C@@H](Oc3c(-c4ccc(O)c(O)c4)oc4cc(O)cc(O)c4c3=O)[C@H](O)[C@@H](O)[C@@H]2O)[C@H](O)[C@H](O)[C@H]1O [Rutin, quercetin-O-3-rutinoside] | 389 ± 4 ^g mV |  | lower IC50 in relation to the respective aglycone ([2]; ACE inhibition): 50%; IC50 [2, 6]: 0.0593 mM; IC50 (ACE [3]): 64 µM
14 | O=C(O)Cc1ccc(O)c(O)c1 [3,4-DHPAA, 3,4-dihydroxyphenylacetic acid] | 432 ± 6 ^g mV | 0.6728 ± 0.00493 mM | inhibitory activity against the formation of advanced glycation end products [5]: strong inhibitory activity
15 | O=c1c(OC2OC(CO)C(O)C(O)C2O)c(-c2ccc(O)c(O)c2)oc2cc(O)cc(O)c12 [Hyperoside, quercetin-3-O-D-galactoside] | 307 ± 3 ^h mV |  | higher value of IC50 as compared to the IC50 of the respective aglycon ([2]; ACE inhibition): 30%; IC50 [2, 6]: 0.1572 ± 0.00145 mM
16 | OCC1OC(Oc2cc3c(O)cc(O)cc3[o+]c2-c2ccc(O)c(O)c2)C(O)C(O)C1O (centres unmarked) [Cyanidin-3-O-glucoside] | 373 ± 4 ^g mV | 0.185 ± 0.00258 mM | higher value of IC50 as compared to the IC50 of the respective aglycon ([2]; ACE inhibition): 5%
17 | O=C1CC(c2ccc(O)cc2)Oc2cc(OC3OC(CO)C(O)C(O)C3O)cc(O)c21 (centres unmarked) [Naringenin-7-O-glucoside] | 830 ± 8 ^ab mV | 0.3572 ± 0.00199 mM | lower IC50 in relation to the respective aglycone ([2]; ACE inhibition): 9%
